These results are taken from ChEMBL document CHEMBL3769388, “Optimization of a Dicarboxylic Series for in Vivo Inhibition of Citrate Transport by the Solute Carrier 13 (SLC13) Family” (J Med Chem, 2016).

The target in assay [1] is Peroxisome proliferator-activated receptor gamma (Homo sapiens) (UniProt P37231). The assay is described as follows: Inhibition of PPAR gamma (unknown origin).
The target of assay [2] is Androgen receptor (Homo sapiens) (UniProt P10275). The assay is described as follows: Inhibition of Androgen receptor (unknown origin).
Androgen receptor (Homo sapiens), sequence (P10275 whole entry): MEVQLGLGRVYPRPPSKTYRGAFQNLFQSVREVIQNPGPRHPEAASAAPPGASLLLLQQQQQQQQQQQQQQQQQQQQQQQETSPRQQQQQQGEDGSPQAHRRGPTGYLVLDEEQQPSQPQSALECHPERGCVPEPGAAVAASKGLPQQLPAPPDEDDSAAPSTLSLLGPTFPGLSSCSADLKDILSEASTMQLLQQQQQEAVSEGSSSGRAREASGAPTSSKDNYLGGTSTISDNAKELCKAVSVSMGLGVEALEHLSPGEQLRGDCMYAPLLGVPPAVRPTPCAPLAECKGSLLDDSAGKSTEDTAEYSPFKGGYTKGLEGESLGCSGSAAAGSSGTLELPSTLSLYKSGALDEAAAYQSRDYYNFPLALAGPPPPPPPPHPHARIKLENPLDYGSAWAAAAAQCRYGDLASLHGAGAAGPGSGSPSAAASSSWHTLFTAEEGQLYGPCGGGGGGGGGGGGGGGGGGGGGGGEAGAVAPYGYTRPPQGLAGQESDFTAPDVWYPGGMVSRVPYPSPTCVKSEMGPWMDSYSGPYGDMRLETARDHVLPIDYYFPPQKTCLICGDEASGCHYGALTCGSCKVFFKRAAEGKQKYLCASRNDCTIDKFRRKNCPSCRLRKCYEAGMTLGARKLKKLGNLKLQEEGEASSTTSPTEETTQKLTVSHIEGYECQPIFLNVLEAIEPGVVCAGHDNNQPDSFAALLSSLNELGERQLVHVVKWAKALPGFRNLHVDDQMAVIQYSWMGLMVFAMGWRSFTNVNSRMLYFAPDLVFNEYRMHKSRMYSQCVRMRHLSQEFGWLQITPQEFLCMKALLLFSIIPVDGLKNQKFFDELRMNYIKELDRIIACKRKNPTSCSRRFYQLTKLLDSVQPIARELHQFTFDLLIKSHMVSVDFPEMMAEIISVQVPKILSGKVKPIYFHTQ
Assay [3] concerns the target Na(+)/dicarboxylate cotransporter 3 (Homo sapiens, UniProt Q8WWT9). The assay is described as follows: Inhibition of NaDC3 (unknown origin) expressed in HEK293 cells assessed as inhibition of [14C]citrate uptake by microbeta plate reader analysis. The class given is cell-based.
Assay [4] addresses Sodium-dependent phosphate transport protein 1 (Homo sapiens) (UniProt Q14916). The experiment in a line: Inhibition of NaPiA1 (unknown origin).

Active and inactive are the calls of the source. The rule behind the calls is not given here.

Na(+)/dicarboxylate cotransporter 3, sequence (Q8WWT9 whole entry): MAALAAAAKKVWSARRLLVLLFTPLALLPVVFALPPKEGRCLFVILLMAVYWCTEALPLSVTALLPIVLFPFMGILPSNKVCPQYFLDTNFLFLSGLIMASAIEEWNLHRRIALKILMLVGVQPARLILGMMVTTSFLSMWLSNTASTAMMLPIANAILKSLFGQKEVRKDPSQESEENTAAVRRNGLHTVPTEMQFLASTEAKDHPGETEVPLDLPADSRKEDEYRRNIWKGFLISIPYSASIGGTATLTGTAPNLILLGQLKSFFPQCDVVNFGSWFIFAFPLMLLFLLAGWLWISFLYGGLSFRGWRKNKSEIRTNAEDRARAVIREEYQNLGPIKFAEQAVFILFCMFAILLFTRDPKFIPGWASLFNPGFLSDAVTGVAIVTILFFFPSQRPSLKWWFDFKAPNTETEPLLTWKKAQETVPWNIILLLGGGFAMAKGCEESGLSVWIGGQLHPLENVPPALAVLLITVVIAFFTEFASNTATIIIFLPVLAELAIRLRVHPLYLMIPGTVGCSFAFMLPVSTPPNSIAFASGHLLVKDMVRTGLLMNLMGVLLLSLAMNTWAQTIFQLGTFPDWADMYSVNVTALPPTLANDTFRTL
Peroxisome proliferator-activated receptor gamma (Homo sapiens), sequence (P37231 whole entry): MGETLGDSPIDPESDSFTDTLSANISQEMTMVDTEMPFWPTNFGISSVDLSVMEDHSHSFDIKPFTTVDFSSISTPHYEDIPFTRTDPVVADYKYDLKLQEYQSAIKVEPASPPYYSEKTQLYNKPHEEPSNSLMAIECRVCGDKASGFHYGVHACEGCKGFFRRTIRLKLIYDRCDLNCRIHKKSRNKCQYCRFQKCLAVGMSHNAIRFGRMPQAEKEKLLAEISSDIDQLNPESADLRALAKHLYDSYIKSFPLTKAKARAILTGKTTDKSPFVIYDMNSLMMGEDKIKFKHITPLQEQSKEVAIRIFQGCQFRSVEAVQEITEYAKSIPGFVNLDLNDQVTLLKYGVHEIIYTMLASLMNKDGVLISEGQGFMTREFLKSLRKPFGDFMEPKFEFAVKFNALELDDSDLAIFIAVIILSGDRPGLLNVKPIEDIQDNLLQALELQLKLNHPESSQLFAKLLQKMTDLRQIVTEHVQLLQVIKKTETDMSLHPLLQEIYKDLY
Sodium-dependent phosphate transport protein 1 (Homo sapiens), sequence (Q14916 whole entry): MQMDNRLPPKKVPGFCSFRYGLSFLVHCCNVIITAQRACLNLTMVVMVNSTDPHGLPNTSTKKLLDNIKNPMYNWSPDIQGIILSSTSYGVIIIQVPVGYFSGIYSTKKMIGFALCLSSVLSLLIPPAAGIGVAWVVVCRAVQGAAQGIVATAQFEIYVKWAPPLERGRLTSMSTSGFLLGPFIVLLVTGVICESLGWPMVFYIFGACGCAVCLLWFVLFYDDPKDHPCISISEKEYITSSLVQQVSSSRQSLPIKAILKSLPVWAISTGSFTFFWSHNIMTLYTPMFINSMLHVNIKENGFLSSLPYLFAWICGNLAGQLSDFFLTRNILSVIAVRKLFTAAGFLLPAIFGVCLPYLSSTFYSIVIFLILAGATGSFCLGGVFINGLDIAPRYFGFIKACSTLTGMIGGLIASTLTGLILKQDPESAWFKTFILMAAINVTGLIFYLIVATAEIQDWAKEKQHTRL

Take `COc1ncc(C)cc1CC[C@@](O)(CC(=O)O)C(=O)O`: the inhibition entry in assay [1], in assay [2] and in assay [4] was “inactive” in each case. For the same molecule, the IC50 in assay [3] (read-out: IC50) was 14.1 µM; in assay [3] (read-out: pIC50 (converted)), 10 µM.
